Experimental data from patent publication US11643385B2, “Polymorphic forms of RAD1901-2HCl” (RADIUS PHARMACEUTICALS, INC., priority 2018, dated 2023).
Entries after “also recorded” stand apart in the source; their conditions may differ. Like-named read-outs stand apart in the source and are kept apart here. Marks after values point to notes of the source that are not given here.

Key:
[1] = Solubility assessment and polymorph screen on Sample 1 (Form 1) of RAD1901-2HCl in 24 solvent systems; assay type: physicochemical; settings: for Solubility observation at 10 vol.: 25 mg Sample 1, 10 vol. solvent (solvent per sample ID), stirred 25° C., shaken 50° C.; for Solubility observation at 20 vol.: 20 vol. solvent (solvent per sample ID); for Solubility observation at 40 vol.: 40 vol. solvent (solvent per sample ID); for Solubility observation at 60 vol.: 60 vol. solvent (solvent per sample ID); for XRPD of recovered solid (form): solid recovered after maturation, cooling or evaporation; for Observation after Cooled to 5° C.: clear solutions cooled 50° C. to 5° C. at 0.1° C./min; for Observation after Evaporation: slow evaporation at ambient conditions
Method: Solubility assessment was carried out on the Sample 1 of RAD1901-2HCl (majorly Form 1 shown by XRPD) in 24 solvent systems in HPLC vials (sample IDs: A1 to A24). RAD1901-2HCl (25 mg) was treated with increasing volumes of solvent until the material fully dissolved or until a maximum of 60 vol had been used (Table 13).
After each addition of solvent, the system was stirred for 5 to 10 minutes at 25° C., then shaken at 50° C. for 5 to 10 minutes, and observations made. Samples were allowed to stand at room temperature for 5 min before the addition of a new aliquot of solvent. After the assessment was completed, the suspensions obtained were matured (maturation) and the clear solutions were cooled (cooling) and slowly evaporated (evaporation) as described below. All solids recovered from maturation, cooling and evaporation experiments were analyzed by high resolution XRPD.
The suspensions obtained during the solubility assessment were matured by shaken in a maturation chamber between 50° C. and RT (8 hr per cycle) for up to 5 days. Then the mixture was allowed to stand at room temperature for 10 minutes. The resulting solids were filtered and air dried and analyzed by XRPD. The clear solutions obtained during maturation were evaporated in ambient conditions and the resulting residues were analyzed by XRPD.
The clear solutions obtained during the course of the solubility assessment were cooled on a Polar Bear device from 50° C. to 5° C. at 0.1° C./min. Solids obtained upon cooling were recovered from the vials, air dried and analyzed by XRPD. If no solid was obtained, the solutions were evaporated slowly through a needle inserted into the septum cap of the vial until a solid appeared at ambient conditions and the resulting solids were filtered, air dried and analyzed by XRPD.

[2] = Solubility assessment and polymorph screen on amorphous RAD1901-2HCl; assay type: physicochemical; settings: for XRPD post 50° C./RT (form): after maturation at 50° C./RT; for Solubility observation at 10 vol.: amorphous RAD1901-2HCl, 10 vol. solvent (solvent per sample ID)
Method: In a scale-up preparation of amorphous RAD1901-2HCl, RAD1901-2HCl (600 mg) was dissolved in water (20 vol., 12 mL) and filtered to remove any remaining solid particles. The solution was then aliquoted into 24 HPLC vials, frozen in a dry ice/acetone bath and the solvent removed by lyophilisation. Solids produced by lyophilization were used directly in solubility assessment and polymorph screens in Example 4.
Amorphous RAD1901-2HCl prepared as described in Example 3B was used directly in solubility assessment and polymorph screens (Table 15). XRPD patterns were further obtained for amorphous RAD1901-2HCl prepared using other solvents.
In the polymorph screen of the amorphous RAD1901-2HCl prepared as described in Example 3B, an aliquot of each sample was examined for its morphology under the microscope, both after maturing at 25° C., and after maturing at 50° C./RT. […] In some instances, the sample appeared to be a mixture of various polymorphic forms, e.g. Form 2 and Form 3 (FIGS. 18B-18C), similar to the mixture of Forms 2 and 3 in Sample 2 having an equilibrium between the two solid forms, depending on the prevailing RH.

Row | SMILES | Solubility observation at 10 vol. [1] | Solubility observation at 20 vol. [1] | Solubility observation at 40 vol. [1] | Solubility observation at 60 vol. [1] | XRPD of recovered solid (form) [1] | other results
1 | CCNCCc1ccc(CN(CC)c2cc(OC)ccc2[C@@H]2CCc3cc(O)ccc3C2)cc1.Cl.Cl [Form A3] | X (X = suspension) | X (X = suspension) | X (X = suspension) | X (X = suspension) | Form 1 | 
2 | CCNCCc1ccc(CN(CC)c2cc(OC)ccc2[C@@H]2CCc3cc(O)ccc3C2)cc1.Cl.Cl [Form B3.] |  |  |  |  |  | XRPD post 50° C./RT (form) [2]: Form 2/3; Solubility observation at 10 vol. [2]: X (X = suspension)
3 | CCNCCc1ccc(CN(CC)c2cc(OC)ccc2[C@@H]2CCc3cc(O)ccc3C2)cc1.Cl.Cl [Form A6] | X (X = suspension) | X (X = suspension) | X (X = suspension) | X (X = suspension) | Form 3* | 
4 | CCNCCc1ccc(CN(CC)c2cc(OC)ccc2[C@@H]2CCc3cc(O)ccc3C2)cc1.Cl.Cl [Form B19.] |  |  |  |  |  | XRPD post 25° C. (form) ([2]; after maturation at 25° C.): Form 3; Solubility observation at 10 vol. [2]: X (X = suspension); Observation After maturation at 25° C. ([2]; maturation at 25° C.): Crystal; Observation After maturation at 50° C. ([2]; maturation at 50° C./RT): Green
5 | CCNCCc1ccc(CN(CC)c2cc(OC)ccc2[C@@H]2CCc3cc(O)ccc3C2)cc1.Cl.Cl [Form A23] | X (X = suspension) | X (X = suspension) | +/− (+/− = nearly dissolved) | S (S = solution) | Form 3 | Observation after Cooled to 5° C. [1]: S; Observation after Evaporation [1]: Solids,
6 | CCNCCc1ccc(CN(CC)c2cc(OC)ccc2[C@@H]2CCc3cc(O)ccc3C2)cc1.Cl.Cl [Form B15.] |  |  |  |  |  | Observation After maturation at 50° C. [2]: Fine; XRPD post 50° C./RT (form) [2]: Form 3
7 | CCNCCc1ccc(CN(CC)c2cc(OC)ccc2[C@@H]2CCc3cc(O)ccc3C2)cc1.Cl.Cl [Form B7.] |  |  |  |  |  | XRPD post 50° C./RT (form) [2]: Form 1^+; Solubility observation at 10 vol. [2]: X (X = suspension)
8 | CCNCCc1ccc(CN(CC)c2cc(OC)ccc2[C@@H]2CCc3cc(O)ccc3C2)cc1.Cl.Cl [Form A12] | +/− (+/− = nearly dissolved) | S (S = solution) |  |  | Form 3 | Observation after Cooled to 5° C. [1]: S; Observation after Evaporation [1]: Solid
9 | CCNCCc1ccc(CN(CC)c2cc(OC)ccc2[C@@H]2CCc3cc(O)ccc3C2)cc1.Cl.Cl [Form A13] | X (X = suspension) | X (X = suspension) | X (X = suspension) | X (X = suspension) | Form 1 | 
10 | CCNCCc1ccc(CN(CC)c2cc(OC)ccc2[C@@H]2CCc3cc(O)ccc3C2)cc1.Cl.Cl [Form A2] | X (X = suspension) | X (X = suspension) | X (X = suspension) | X (X = suspension) | Form 1 | 
11 | CCNCCc1ccc(CN(CC)c2cc(OC)ccc2[C@@H]2CCc3cc(O)ccc3C2)cc1.Cl.Cl [Form A17] | X (X = suspension) | X (X = suspension) | X (X = suspension) | X (X = suspension) | Form 1 | 
12 | CCNCCc1ccc(CN(CC)c2cc(OC)ccc2[C@@H]2CCc3cc(O)ccc3C2)cc1.Cl.Cl [Form A10] | X (X = suspension) | X (X = suspension) | X (X = suspension) | X (X = suspension) | Form 1 | 
13 | CCNCCc1ccc(CN(CC)c2cc(OC)ccc2[C@@H]2CCc3cc(O)ccc3C2)cc1.Cl.Cl [Form A21] |  |  |  |  |  | Observation After 50/RT maturation ([1]; 50° C./RT cycles (8 hr per cycle) up to 5 days): S
14 | CCNCCc1ccc(CN(CC)c2cc(OC)ccc2[C@@H]2CCc3cc(O)ccc3C2)cc1.Cl.Cl [Form A14] | X (X = suspension) | X (X = suspension) | X (X = suspension) | X (X = suspension) | Form 1 | 
15 | CCNCCc1ccc(CN(CC)c2cc(OC)ccc2[C@@H]2CCc3cc(O)ccc3C2)cc1.Cl.Cl [Form A24] | X (X = suspension) | X (X = suspension) | +/− (+/− = nearly dissolved) | S (S = solution) | Form 3 | Observation after Cooled to 5° C. [1]: S; Observation after Evaporation [1]: Solids
16 | CCNCCc1ccc(CN(CC)c2cc(OC)ccc2[C@@H]2CCc3cc(O)ccc3C2)cc1.Cl.Cl [Form A4] | X (X = suspension) | X (X = suspension) | X (X = suspension) | X (X = suspension) | Form 1 | 
17 | CCNCCc1ccc(CN(CC)c2cc(OC)ccc2[C@@H]2CCc3cc(O)ccc3C2)cc1.Cl.Cl [Form A1] | X (X = suspension) | X (X = suspension) | X (X = suspension) | X (X = suspension) | Form 1 | 
18 | CCNCCc1ccc(CN(CC)c2cc(OC)ccc2[C@@H]2CCc3cc(O)ccc3C2)cc1.Cl.Cl [Form A15] | X (X = suspension) | X (X = suspension) | X (X = suspension) | X (X = suspension) | Form 1 | 
19 | CCNCCc1ccc(CN(CC)c2cc(OC)ccc2[C@@H]2CCc3cc(O)ccc3C2)cc1.Cl.Cl [Form A8] | X (X = suspension) | X (X = suspension) | X (X = suspension) | X (X = suspension) | Form 1 | 
20 | CCNCCc1ccc(CN(CC)c2cc(OC)ccc2[C@@H]2CCc3cc(O)ccc3C2)cc1.Cl.Cl [Form A20] | +/− (+/− = nearly dissolved) | S (S = solution) |  |  | Pattern 3; also recorded: Form 3 | Observation after Cooled to 5° C. [1]: Platelet
21 | CCNCCc1ccc(CN(CC)c2cc(OC)ccc2[C@@H]2CCc3cc(O)ccc3C2)cc1.Cl.Cl [Form A5] | X (X = suspension) | X (X = suspension) | X (X = suspension) | X (X = suspension) | Form 1 | 
22 | CCNCCc1ccc(CN(CC)c2cc(OC)ccc2[C@@H]2CCc3cc(O)ccc3C2)cc1.Cl.Cl [Form A11] | S (S = solution) |  |  |  |  | Observation after Cooled to 5° C. [1]: S; Observation after Evaporation [1]: S
23 | CCNCCc1ccc(CN(CC)c2cc(OC)ccc2[C@@H]2CCc3cc(O)ccc3C2)cc1.Cl.Cl [Form A19] | X (X = suspension) | X (X = suspension) | X (X = suspension) | X (X = suspension) | Form 1 | 
24 | CCNCCc1ccc(CN(CC)c2cc(OC)ccc2[C@@H]2CCc3cc(O)ccc3C2)cc1.Cl.Cl [Form A7] | X (X = suspension) | X (X = suspension) | X (X = suspension) | X (X = suspension) | Form 1* | 
25 | CCNCCc1ccc(CN(CC)c2cc(OC)ccc2[C@@H]2CCc3cc(O)ccc3C2)cc1.Cl.Cl [Form A22] | +/− (+/− = nearly dissolved) | S (S = solution) |  |  | Form 3* | Observation after Cooled to 5° C. [1]: Some
